Key:
Assay in all cases: relative viability (nuclei count vs DMSO), 5 days (fraction); higher = more cells survive
AGI-6780 + Navitoclax = compound: O=C(Nc1cccc(C(F)(F)F)c1)Nc1cc(S(=O)(=O)NC2CC2)ccc1-c1ccsc1 [AGI-6780] + CC1(C)CCC(c2ccc(Cl)cc2)=C(CN2CCN(c3ccc(C(=O)NS(=O)(=O)c4ccc(N[C@H](CCN5CCOCC5)CSc5ccccc5)c(S(=O)(=O)C(F)(F)F)c4)cc3)CC2)C1 [Navitoclax] (partner 0.5 µM)
Procedure, shortened: (§1)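 Five library-drug doses in √10 steps were combined with a fixed anchor-drug dose, or a single drug was given alone, by pin tool to lung cancer cell lines in 1536-well plates the day after seeding. Nuclei were stained and counted after 5 days. Relative viability is the nuclei count in treated wells over that in vehicle wells, taken as the median of duplicate plates.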

AGI-6780 + Luminespib = compound: O=C(Nc1cccc(C(F)(F)F)c1)Nc1cc(S(=O)(=O)NC2CC2)ccc1-c1ccsc1 [AGI-6780] + CCNC(=O)c1noc(-c2cc(C(C)C)c(O)cc2O)c1-c1ccc(CN2CCOCC2)cc1 [Luminespib] (partner 0.01 µM)
Procedure, shortened: as §1

AGI-6780 + Foretinib = compound: O=C(Nc1cccc(C(F)(F)F)c1)Nc1cc(S(=O)(=O)NC2CC2)ccc1-c1ccsc1 [AGI-6780] + COc1cc2c(Oc3ccc(NC(=O)C4(C(=O)Nc5ccc(F)cc5)CC4)cc3F)ccnc2cc1OCCCN1CCOCC1 [Foretinib] (partner 0.25 µM)
Procedure, shortened: as §1

AGI-6780 + Linsitinib = compound: O=C(Nc1cccc(C(F)(F)F)c1)Nc1cc(S(=O)(=O)NC2CC2)ccc1-c1ccsc1 [AGI-6780] + C[C@]1(O)C[C@@H](c2nc(-c3ccc4ccc(-c5ccccc5)nc4c3)c3c(N)nccn32)C1 [Linsitinib] (partner 1 µM)
Procedure, shortened: as §1

Cell Line	relative viability (AGI-6780 + Navitoclax; first compound 0.08 µM)	relative viability (AGI-6780 + Navitoclax; first compound 0.253 µM)	relative viability (AGI-6780 + Navitoclax; first compound 0.8 µM)	relative viability (AGI-6780 + Navitoclax; first compound 2.53 µM)	relative viability (AGI-6780 + Navitoclax; first compound 8 µM)	relative viability (AGI-6780 + Luminespib; first compound 0.08 µM)	relative viability (AGI-6780 + Luminespib; first compound 0.253 µM)	relative viability (AGI-6780 + Luminespib; first compound 0.8 µM)	relative viability (AGI-6780 + Luminespib; first compound 2.53 µM)	relative viability (AGI-6780 + Luminespib; first compound 8 µM)	relative viability (AGI-6780 + Foretinib; first compound 0.08 µM)	relative viability (AGI-6780 + Foretinib; first compound 0.253 µM)	relative viability (AGI-6780 + Foretinib; first compound 0.8 µM)	relative viability (AGI-6780 + Foretinib; first compound 2.53 µM)	relative viability (AGI-6780 + Foretinib; first compound 8 µM)	relative viability (AGI-6780 + Linsitinib; first compound 0.08 µM)	relative viability (AGI-6780 + Linsitinib; first compound 0.253 µM)	relative viability (AGI-6780 + Linsitinib; first compound 0.8 µM)	relative viability (AGI-6780 + Linsitinib; first compound 2.53 µM)	relative viability (AGI-6780 + Linsitinib; first compound 8 µM)
HOP-62	0.974	1.01	1.13	1.11	1.19	0.963	0.983	0.925	1	0.95	1.08	1.06	1.14	1.16	1.15	0.945	1.3	1.08	1.04	0.826
LC-2-ad	0.552	0.468	0.505	0.249	0.659	1	0.915	1.11	1.05	0.921	0.939	0.849	1.04	0.913	0.901	0.824	0.9	0.878	0.882	0.791
LCLC-97TM1	0.503	0.702	0.642		0.431	0.814	0.703	0.876	0.71	0.714	1.09	0.929	0.929	0.864	0.84	0.177	0.252	0.21		0.186
LK-2	0.891	0.844	1.01		1.11	0.189	0.169	0.183		0.202	1.23	1.15	1.21		1.53	0.617	0.646	0.536		0.522
LOU-NH91	0.718	0.735	0.698	0.575	0.775	0.411	0.337	0.436	0.328	0.305	0.946	0.908	0.961	0.93	0.893	0.99	0.921	0.857	0.901	0.93
LU99A	0.786	0.842	0.823	0.741	0.809	0.229	0.258	0.235	0.223	0.277	0.915	0.813	0.874	0.633	0.738	0.581	0.57	0.54	0.498	0.565
LXF-289	0.967	0.939	0.936	0.987	0.939	0.776	0.723	0.679	0.606	0.659	1	1	1.04	0.954	0.934	0.952	1.01	1.01	1.01	0.897
NCI-H23	0.844	0.951	0.835	0.555	0.802		0.202	0.231		0.205	1.12	0.968	1.02	0.96	0.865	0.622	0.582	0.693	0.39	0.672
NCI-H322M	1.11	1.14	1.28	1.24	1.21	0.889	0.901	0.912	0.744	0.814	1.06	1.01	1.1	1.07	0.982	0.883	0.969	1.03	0.772	0.878
NCI-H441	0.702	0.993	0.604	0.487	0.663	0.346	0.333	0.41	0.302	0.361	1.03	1.16	1.06	0.754	0.844	0.498	0.528	0.461	0.424	0.459
NCI-H460	1.14	1.03	1.04	1.14	1.14	0.0337	0.0309	0.0296	0.0322	0.0345	0.98	1.04	1.04	0.998	0.991	0.796	0.788	0.936	0.741	0.72
NCI-H520	1.04	1.12	1.18	1.05	1.05	0.23	0.255	0.234	0.178	0.231	0.684	0.942	1.07	0.655	0.77	1.04	0.959	0.979	0.753	1.04
NCI-H596	0.91	1.02	0.927	0.774	0.929	1	0.995	0.982		1.09	0.978	1.01	0.788		1.06	1.24	1.09	0.961	0.931	1.12
NCI-H647	1.2	1.22	1.33	1.09	1.19	0.0935	0.181	0.12	0.103	0.118	1.1	1.2	1.31	1.11	1.4	1.17	1.19	1.12	1.14	1.2
NCI-H727	0.493	0.448	0.474	0.369	0.494	0.322	0.545	0.347	0.287	0.468	1.07	0.982	0.98	0.626	1.02	0.285	0.331	0.325	0.235	0.285
NCI-H838	1.19	1.09	1.17	1.06	1.11	0.374	0.353	0.339	0.303	0.274	1.13	1.02	0.987	0.895	1.02	1.12	0.964	1.07	0.851	0.908
NCI-H1355	1.01	1.05	0.984	0.932	0.946	0.75	0.791	0.686	0.408	0.624	0.956	0.98	1.06	0.911	1.04	0.842	0.835	0.831	0.665	0.821
NCI-H1395	1.25	1.17	1.2		1.23	1.02	0.78	0.73	0.646	0.615	0.917	0.986	0.979	0.901	0.931	1.14	1.16	1.12		1.14
NCI-H1437	1.19	1.06	1.12	1.07	0.966	1.21	1.06	1.17	1.22	1.1	1.2	1.27	1.21	1.31	1.15	1.11	1.01	1.07	1.03	0.983
NCI-H1651	1.04	1.13	1.01	0.912	0.906	0.809	0.893	0.919	0.744	0.804	0.87	0.824	0.715	0.692	0.796	0.959	0.966	0.982	0.876	0.837
NCI-H1666	0.985	0.894	0.909		0.92	1.04	1.03	1.01	0.961	1.06	0.945	0.999	0.939	0.929	1.04	0.947	0.92	0.811		0.927
NCI-H1734	0.889	0.814	0.778		0.861	0.216	0.233	0.201	0.19	0.177	0.814	0.954	0.83	0.663	0.819	1.01	0.975	0.728		0.945
NCI-H1755	1.04	1.01	0.977	0.961	0.894	0.37	0.49	0.518	0.304	0.42	0.986	0.975	0.85	0.874	0.905	0.987	1.01	0.999	0.974	0.923
NCI-H1793	0.977	0.365	0.455	0.386	0.519	0.211	0.162	0.175	0.155	0.207	0.729	0.745	0.771	0.555	0.603	0.849	0.881	1.11	0.526	0.93
NCI-H1915	0.818	0.781	0.746	0.808	0.738	0.781	0.894	0.879	0.698	0.836	1.04	1.11	1.09	1.1	1.03	1.1	1.04	1.08	1.06	1.08
NCI-H1944	1.07	1.09	1.01	0.792	1.02	0.814	0.711	0.709		0.768	1.03	0.885	0.93		0.869	1.22	1.28	1.24	0.931	1.13
NCI-H1975	1.15	1	1.1	1.02	1.03	0.259	0.184	0.222	0.263	0.161	0.979	0.944	0.897		0.896	1.11	0.986	0.912	1.07	0.969

From the supplement of paper PMC10307832
